Data taken from patent US9801851B2, “Methods and compositions for the treatment of BCR-ABL positive lymphoblastic leukemias” (ST. JUDE CHILDREN'S RESEARCH HOSPITAL, priority 2012, dated 2017).
Where two headings read alike, the source gives them in different places.

Legend:
[1] = tested on: human Ph+ ALL SUPB15 cells; test: Cell viability, MTS assay, 72 h; format: cell-based
Procedure: Drug delivery to cell suspensions was accomplished with a V & P Scientific (San Diego, Calif.) pin. For murine-human comparisons, human SUP-B15 Ph+ ALL cells (DSMZ cell culture collection, Germany) in McCoy's media containing 20% fetal calf serum and penicillin/streptomycin (Invitrogen, Carlsbad, Calif.), were plated at 12,500 cells in 25 μL per well in black clear-bottom 384-well microtiter plates. Drugs were transferred by pin-transfer. After 72 h incubation at 37° C., 20% (by volume) MTS assay reagent (CellTiter 96 Aqueous One Solution, Promega, Madison, Wis.) was added, microtiter plates were incubated for 75 min at 37° C., and read colorimetrically at 490 nm.

[2] = tested on: Arf−/− BCR-ABL^WT LICs; format: in vivo
[3] = In vivo toxicity studies of DHA by oral gavage; conditions: repeated single doses of 300 mg/kg, 5 days/week
Procedure: In toxicity studies, DHA was ranged up to 300 mg/kg as a single or split dose for 5 days/week over a six week time period. […] During therapeutic studies, animal weights were monitored daily to ensure no significant body weight reductions.

[4] = tested on: Arf−/− BCR-ABL^WT LICs; test: LIC growth inhibition, CellTiter-Glo (CTG) assay, 72 h; format: cell-based, murine; conditions: for effect of cytokine on dasatinib potency: 72-h dasatinib exposure in presence of increasing concentrations of cytokine
Source text: Replication-defective mouse stem cell virus (MSCV) retroviral vectors co-expressing either the wild-type (WT) allele of human p185^BCR-ABL or mutant BCR-ABL alleles p185^T315I or p185^F317L, and either green fluorescent protein (GFP) or luciferase, were packaged into replication-incompetent ecotropic virions. Whole bone marrow cell suspensions from Arf^−/− young adult mice were infected to produce Arf^−/− p185+ pre-B cells. […] Prior to use in any assays, Arf^−/− p185^WT and Arf^−/− p185^T315I pre-B cells (BCR-ABL^WT leukemia initiating cells (LICs) and BCR-ABL^T315I LICs, respectively) were thawed and allowed to recover in BCM10 for 3 days.
The maximum dimethyl sulfoxide (DMSO) concentration tolerated by LICs in culture was determined to be 0.2% (by volume) and was maintained at ≦0.1% (by volume) in all subsequent work. […] Both cell types were plated at multiple cell dilutions (n=3 for each condition, time=0 h) in 6-well plates and serially followed daily for 5 days to evaluate absolute viable cell count, total viability, doubling times, and total population doublings, using the Beckman Coulter cell counter (trypan blue staining) and fluorescence-activated cell sorting (FACS) analysis in parallel. […] FACS cell-cycle analysis confirmed that a population doubling time less than 14 h was sufficient to maintain cells in exponential growth (>50% cells in S-phase).
After a 72 h drug challenge, LIC growth was measured by the 3 cellular readouts: CellTiter-Glo® (CTG) assay (ATP content), MTS (3-(4,5-dimethylthiazol-2-yl)-5-(3-carboxymethoxyphenyl)-2-(4-sulfophenyl)-2H-tetrazolium) assay (viability), and high-throughput flow cytometry (total viability and viable cell counts by DAPI exclusion). Measured assay readouts at various drug concentrations (x-axis) were normalized to DMSO-treated LICs and graphed (+/−sd) on y-axis.

## C[C@@H]1CCC2[C@@H](C)[C@@H](O)O[C@@H]3OC4(C)CC[C@@H]1[C@@]23OO4 (some centres unmarked) [DHA, dihydroartemisinin]
[1]
  killing of human Ph+ ALL cell line: actively kill
[2]; 200 mg/kg
  efficacy alone in high-burden leukemia model: completely ineffective
[2]; 300 mg/kg
  efficacy alone in high-burden leukemia model: poorly effective
[2]; IL7+/+ host mice, low-burden 2×10^3 LICs, 100, 200, 300 mg/kg once daily 5 days/week from day 3
  survival benefit, monotherapy: dose-dependent survival benefit
[3]
  toxicity findings: no significant weight loss, lethargy, seizures or deaths

## C[C@@H]1CC[C@H]2[C@@H](C)C(=O)O[C@@H]3O[C@@]4(C)CC[C@@H]1[C@]32OO4 [artemisinin]
[4]; BCR-ABL^WT and BCR-ABL^T315I LICs, 72 h, absence or presence of 1 ng/mL murine IL7
  anti-LIC potency: lower than that of artesunate or DHA

## C[C@H]1[C@H](OC(=O)CCC(=O)O)O[C@@H]2O[C@@]3(C)CC[C@H]4[C@H](C)CC[C@@H]1[C@@]24OO3 [artesunate]
[1]
  killing of human Ph+ ALL cell line: actively kill

## IL4: recombinant murine hematopoietic cytokine
[4]
  effect of cytokine on dasatinib potency: confer some resistance

## TGF-β
[4]
  effect of cytokine on dasatinib potency: enhance dasatinib activity

## TSLP: thymic stromal lymphopoietin, IL7-like cytokine
[4]
  effect of cytokine on dasatinib potency: confer some resistance

B1: IL7: recombinant murine cytokine, leukemia-microenvironment host factor (protein, UniProt P10168 26-154, looked up)
Interleukin-7: ECHIKDKEGKAYESVLMISIDELDKMTGTDSNCPNNEPNFFRKHVCDDTKEAAFLNRAARKLKQFLKMNISEEFNVHLLTVSQGTQTLVNCTSKEEKNVKEQKKNDACFLKRLLREIKTCWNKILKGSI
[4]
  effect of cytokine on dasatinib potency: strongest protection against dasatinib
